Assay [1] has as its target T1, Recombinant Human 5′-Nucleotidase (CD73) (Homo sapiens, UniProt P21589).
T1 construct: CHO derived CD73 (Trp27-Lys547), with a C-terminal 6-His tag; 6-His (C); purchased R&D 5795-EN; host or cells: CHO
T1 sequence (P21589 27-547): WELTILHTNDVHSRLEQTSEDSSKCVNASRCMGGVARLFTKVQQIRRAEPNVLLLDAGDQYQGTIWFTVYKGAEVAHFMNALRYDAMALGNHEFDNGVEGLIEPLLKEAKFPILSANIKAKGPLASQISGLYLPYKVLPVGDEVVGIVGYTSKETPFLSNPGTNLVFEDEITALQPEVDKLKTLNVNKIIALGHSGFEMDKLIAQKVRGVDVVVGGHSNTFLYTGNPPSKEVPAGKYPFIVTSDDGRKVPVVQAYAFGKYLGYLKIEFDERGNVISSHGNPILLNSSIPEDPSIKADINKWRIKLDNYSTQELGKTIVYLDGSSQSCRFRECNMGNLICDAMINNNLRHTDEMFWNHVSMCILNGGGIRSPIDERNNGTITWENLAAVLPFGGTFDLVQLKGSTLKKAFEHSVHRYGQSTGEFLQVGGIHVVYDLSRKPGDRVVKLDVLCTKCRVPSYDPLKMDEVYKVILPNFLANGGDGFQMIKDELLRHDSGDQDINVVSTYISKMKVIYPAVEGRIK
Description: CD73 Enzyme Assay. To be noted: human CD73 0.5 nM, AMP 30 μM, PiColorLock phosphate detection; read-out: Potency (IC50, CD73 enzyme assay). It counts as biochemical. Put shortly: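 Human CD73 (CHO-derived Trp27-Lys547, His-tagged; 0.5 nM final) was preincubated with compound for 15 min at 25° C. in Tris pH 7.5 buffer with MgCl2. It then reacted with 30 μM AMP for 20 min at 37° C., and released phosphate was read by malachite green absorbance at 635 nm. IC50 came from four-parameter fits against enzyme and no-enzyme controls.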

Assay [2] has as its target T2, Cell surface CD73 of U87 MG human glioblastoma cells (Homo sapiens, UniProt P21589).
T2 construct: Cell surface CD73 catalyzes the conversion of adenosine monophosphate (AMP) to adenosine and inorganic phosphate; endogenous in cells; host or cells: U87 MG human glioblastoma cells
T2 sequence (P21589 27-549): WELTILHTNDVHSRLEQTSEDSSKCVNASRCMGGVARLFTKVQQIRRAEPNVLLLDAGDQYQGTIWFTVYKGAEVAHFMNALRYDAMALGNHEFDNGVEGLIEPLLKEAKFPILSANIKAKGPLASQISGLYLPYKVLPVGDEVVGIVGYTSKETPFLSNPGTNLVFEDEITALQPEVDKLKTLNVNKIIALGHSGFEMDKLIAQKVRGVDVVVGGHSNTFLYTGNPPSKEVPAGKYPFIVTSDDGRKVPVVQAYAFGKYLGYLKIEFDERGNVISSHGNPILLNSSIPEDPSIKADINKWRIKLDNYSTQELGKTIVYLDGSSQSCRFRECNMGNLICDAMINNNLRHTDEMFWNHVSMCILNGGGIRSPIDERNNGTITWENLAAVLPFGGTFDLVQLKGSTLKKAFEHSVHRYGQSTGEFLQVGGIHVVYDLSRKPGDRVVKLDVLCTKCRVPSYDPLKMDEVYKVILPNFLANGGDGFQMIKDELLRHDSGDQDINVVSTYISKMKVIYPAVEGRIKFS
The assay is described as follows: CD73 Cellular Assay. Conditions: 5000 cells per well, 30 μM AMP substrate, read-out: Potency (IC50, CD73 cellular assay). It counts as cell-based. Put shortly:
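U87 MG cells (5000/well) preincubated with compound 30 min at 37 °C, 5% CO2, in HEPES-buffered saline pH 7.4 with 0.5% DMSO, then 30 μM AMP (final) for 50 min. Released phosphate in supernatant read colorimetrically at 635 nm; IC50 from four-parameter logistic fit versus cells-plus-substrate and cells-only controls.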

A value given as a limit tells only on which side of the number the result lay.

As usually defined, the IC50 is the concentration at which inhibition is half-maximal.

Take `O=P(O)(O)CP(=O)(O)OC[C@H]1O[C@@H](c2cnc3c(N4CC5CC5C4)nc(Cl)nn23)[C@H](O)[C@@H]1O` (stereo partly drawn) [Compound 45, [({[(2R,3S,4R,5S)-5-(4-{3-azabicyclo[3.1.0]hexan-3-yl}-2-chloroimidazo[2,1-f][1,2,4]triazin-7-yl)-3,4-dihydroxyoxolan-2-yl]methoxy}(hydroxy)phosphoryl)methyl]phosphonic Acid]: the values for the IC50 in assay [1] and in assay [2] were < 10 nM and < 1 nM, respectively.

For `O=P(O)(O)CP(=O)(O)OC[C@H]1O[C@@H](c2cnc3c(N4CC5CCCC5C4)nc(Cl)nn23)[C@H](O)[C@@H]1O` (stereo partly drawn) [Compound 10, (((((2R,3S,4R,1S)-5-(2-chloro-4-(hexahydrocyclopenta[c]pyrrol-2(1H)-yl)imidazo[2,1-f][1,2,4]triazin-7-yl)-3,4-dihydroxytetrahydrofuran-2-yl)methoxy)(hydroxy)phosphoryl)methy)phosphonic acid], the IC50 in assay [1] was < 10 nM; in assay [2] it was < 1 nM.

On to `O=P(O)(O)CP(=O)(O)OC[C@H]1O[C@@H](c2cnc3c(NC4CCCCC4)nc(Cl)nn23)[C@H](O)[C@@H]1O` [Compound 20, (((((2R,3S,4R,1S)-5-(2-chloro-4-(cyclohexylamino)imidazo[2,1-f][1,2,4]triazin-7-yl)-3,4-dihydroxytetrahydrofuran-2-yl)methoxy)(hydroxy)phosphoryl)methyl)phosphonic Acid], for which the IC50 was < 10 nM in assay [1] and < 1 nM in assay [2].

For `O=P(O)(O)CP(=O)(O)OC[C@H]1O[C@@H](c2cnc3c(NC4CCOC4)nc(Cl)nn23)[C@H](O)[C@@H]1O` (stereo partly drawn) [Compound 14, [({[(2R,3S,4R,5S)-5-[2-chloro-4-(oxolan-3-ylamino)imidazo[2,1-f][1,2,4]triazin-7-yl]-3,4-dihydroxyoxolan-2-yl]methoxy}(hydroxy)phosphoryl)methyl]phosphonic acid], the IC50 was < 10 nM in assay [1] and < 1 nM in assay [2].

`O=P(O)(O)CP(=O)(O)OC[C@H]1O[C@@H](c2cnc3c(NC4CCCC4)nc(Cl)nn23)[C@H](O)[C@@H]1O` [Compound 5, (((((2R,3S,4R,1S)-5-(2-chloro-4-(cyclopentylamino)imidazo[2,1-f][1,2,4]triazin-7-yl)-3,4-dihydroxytetrahydrofuran-2-yl)methoxy)(hydroxy)phosphoryl)methyl)phosphonic acid]: the IC50 in assay [1] is < 10 nM; in assay [2], < 1 nM.

In the case of `CO[C@H]1CC[C@@H](Nc2nc(Cl)nn3c([C@@H]4O[C@H](COP(=O)(O)CP(=O)(O)O)[C@@H](O)[C@H]4O)cnc23)CC1` [Compound 27, (((((2R,3S,4R,1S)-5-(2-chloro-4-(((1s,4R)-4-methoxycyclohexyl)amino)imidazo[2,1-f][1,2,4]triazin-7-yl)-3,4-dihydroxytetrahydrofuran-2-yl)methoxy)(hydroxy)phosphoryl)methyl)phosphonic Acid], the IC50 in assay [1] is < 10 nM; in assay [2], < 1 nM.

Turning to `O=P(O)(O)CP(=O)(O)OC[C@H]1O[C@@H](c2cnc3c(N4CCc5ccccc5C4)nc(Cl)nn23)[C@H](O)[C@@H]1O` [Compound 19, (((((2R,3S,4R,1S)-5-(2-chloro-4-(3,4-dihydroisoquinolin-2(1H)-yl)imidazo[2,1-f][1,2,4]triazin-7-yl)-3,4-dihydroxytetrahydrofuran-2-yl)methoxy)(hydroxy)phosphoryl)methyl)phosphonic Acid], the figures for the IC50 in assay [1] and in assay [2] were < 10 nM and < 1 nM, respectively.

Take `O=P(O)(O)CP(=O)(O)OC[C@H]1O[C@@H](c2cnc3c(NC4CCC(F)(F)C4)nc(Cl)nn23)[C@H](O)[C@@H]1O` (stereo partly drawn) [Compound 49, (((((2R,3S,4R,1S)-5-(2-chloro-4-((3,3-difluorocyclopentyl)amino)imidazo[2,1-f][1,2,4]triazin-7-yl)-3,4-dihydroxytetrahydrofuran-2-yl)methoxy)(hydroxy)phosphoryl)methyl)phosphonic Acid]: the IC50 in assay [1] was < 10 nM; in assay [2], < 1 nM.

`O=P(O)(O)CP(=O)(O)OC[C@H]1O[C@@H](c2cnc3c(N4CCc5ccccc54)nc(Cl)nn23)[C@H](O)[C@@H]1O` [Compound 18, (((((2R,3S,4R,1S)-5-(2-chloro-4-(indolin-1-yl)imidazo[2,1-f][1,2,4]triazin-7-yl)-3,4-dihydroxytetrahydrofuran-2-yl)methoxy)(hydroxy)phosphoryl)methyl)phosphonic Acid]: the IC50 in assay [1] was < 10 nM; in assay [2], 1 to 9.9 nM.

Consider `C[C@@H](Nc1nc(Cl)nn2c([C@@H]3O[C@H](COP(=O)(O)CP(=O)(O)O)[C@@H](O)[C@H]3O)cnc12)c1ccccc1` [Compound 34, [({[(2R,3S,4R,5S)-5-(2-chloro-4-{[(1R)-1-phenylethyl]amino}imidazo[2,1-f][1,2,4]triazin-7-yl)-3,4-dihydroxyoxolan-2-yl]methoxy}(hydroxy)phosphoryl)methyl]phosphonic Acid], for which the IC50 in assay [1] was < 10 nM; in assay [2] it was 1 to 9.9 nM.

Regarding `O=P(O)(O)CP(=O)(O)OC[C@H]1O[C@@H](c2cnc3c(NCc4ccccc4Cl)nc(Cl)nn23)[C@H](O)[C@@H]1O` [Compound 11, [({[(2R,3S,4R,5S)-5-(2-chloro-4-{[(2-chlorophenyl)methyl]amino}imidazo[2,1-f][1,2,4]triazin-7-yl)-3,4-dihydroxyoxolan-2-yl]methoxy}(hydroxy)phosphoryl)methyl]phosphonic acid], the results for the IC50 in assay [1] and in assay [2] were < 10 nM and < 1 nM, respectively.

Consider `CN(c1nc(Cl)nn2c([C@@H]3O[C@H](COP(=O)(O)CP(=O)(O)O)[C@@H](O)[C@H]3O)cnc12)C1CCCC1` [Compound 8, (((((2R,3S,4R,1S)-5-(2-chloro-4-(cyclopentyl(methyl)amino)imidazo[2,1-f][1,2,4]triazin-7-yl)-3,4-dihydroxytetrahydrofuran-2-yl)methoxy)(hydroxy)phosphoryl)methyl)phosphonic acid], for which the IC50 was < 10 nM in assay [1] and < 1 nM in assay [2].

In the case of `CN(c1nc(Cl)nn2c([C@@H]3O[C@H](COP(=O)(O)CP(=O)(O)O)[C@@H](O)[C@H]3O)cnc12)C1CCc2ccccc21` (stereo partly drawn) [Compound 29, (((((2R,3S,4R,1S)-5-(2-chloro-4-(((R)-2,3-dihydro-1H-inden-1-yl)(methyl)amino)imidazo[2,1-f][1,2,4]triazin-7-yl)-3,4-dihydroxytetrahydrofuran-2-yl)methoxy)(hydroxy)phosphoryl)methyl)phosphonic Acid], the figures for the IC50 in assay [1] and in assay [2] were < 10 nM and < 1 nM, respectively.

With `O=P(O)(O)CP(=O)(O)OC[C@H]1O[C@@H](c2cnc3c(N4CCC[C@H]4c4ccccc4)nc(Cl)nn23)[C@H](O)[C@@H]1O` [Compound 64, (((((2R,3S,4R,1S)-5-(2-chloro-4-((S)-2-phenylpyrrolidin-1-yl)imidazo[2,1-f][1,2,4]triazin-7-yl)-3,4-dihydroxytetrahydrofuran-2-yl)methoxy)(hydroxy)phosphoryl)methyl)phosphonic Acid], the IC50 in assay [1] was < 10 nM; in assay [2], < 1 nM.

In the case of `O=P(O)(O)CP(=O)(O)OC[C@H]1O[C@@H](c2cnc3c(NC4CCCC4)ncnn23)[C@H](O)[C@@H]1O` [Compound 1, (((((2R,3S,4R,5S)-5-(4-(cyclopentylamino)imidazo[2,1-f][1,2,4]triazin-7-yl)-3,4-dihydroxytetrahydrofuran-2-yl)methoxyxhydroxy)phosphoryl)methyl)phosphonic acid], the figures for the IC50 in assay [1] and in assay [2] were < 10 nM and < 1 nM, respectively.
